Consider 23 compounds from ChEMBL document CHEMBL5365501, “Brain-penetrant cyanoindane and cyanotetralin inhibitors of G2019S-LRRK2 kinase activity” (Bioorg Med Chem Lett, 2023).

For data set [1], the target named is T1, Leucine-rich repeat serine/threonine-protein kinase 2 (Homo sapiens, UniProt Q5S007, G2019S). The data set can be described thus: Inhibition of LRRK2 G2019S mutant (unknown origin) using LRRKtide as substrate pre-incubated for 15 min and measured after 1 hrs by HTRF assay. (TR-FRET usually uses a lanthanide donor and a delayed reading to cut background.)

The next data set relates to MDR1 (P-gp). The data set can be described thus: Efflux ratio of permeability across basolateral to apical side over apical to basolateral side in dog MDCKII-MDR1 cells. The format is ADME, cell-based, Canis lupus familiaris. Particulars: MDCK-MDR1.
The target in data set [2] is T1, Leucine-rich repeat serine/threonine-protein kinase 2. The data set can be described thus: Inhibition of phosphorylated human LRRK2 G2019S mutant at S935 in human HEK293 cells incubated for 2 hrs. The format is cell-based.
The target is the same in data set [3]. The data set can be described thus: Inhibition of human LRRK2 G2019S mutant phosphorylation at S1292 in human HEK293 cells incubated for 2 hrs. It is filed as cell-based.
The nature of data set [4]: Stability in human liver microsomes assessed as half life at 0.5 uM incubated up to 45 min in the presence of NADPH regenerating system by LC MS/MS analysis. It is filed as ADME, Microsome.
Data set [5] is described as follows: Stability in rat liver microsomes assessed as half life at 0.5 uM incubated up to 45 min in the presence of NADPH regenerating system by LC MS/MS analysis. The format is ADME, Microsome. In general terms: Microsomes from liver hold many membrane-bound enzymes, among them those of drug oxidation.

T1 sequence (Q5S007 whole entry G2019S): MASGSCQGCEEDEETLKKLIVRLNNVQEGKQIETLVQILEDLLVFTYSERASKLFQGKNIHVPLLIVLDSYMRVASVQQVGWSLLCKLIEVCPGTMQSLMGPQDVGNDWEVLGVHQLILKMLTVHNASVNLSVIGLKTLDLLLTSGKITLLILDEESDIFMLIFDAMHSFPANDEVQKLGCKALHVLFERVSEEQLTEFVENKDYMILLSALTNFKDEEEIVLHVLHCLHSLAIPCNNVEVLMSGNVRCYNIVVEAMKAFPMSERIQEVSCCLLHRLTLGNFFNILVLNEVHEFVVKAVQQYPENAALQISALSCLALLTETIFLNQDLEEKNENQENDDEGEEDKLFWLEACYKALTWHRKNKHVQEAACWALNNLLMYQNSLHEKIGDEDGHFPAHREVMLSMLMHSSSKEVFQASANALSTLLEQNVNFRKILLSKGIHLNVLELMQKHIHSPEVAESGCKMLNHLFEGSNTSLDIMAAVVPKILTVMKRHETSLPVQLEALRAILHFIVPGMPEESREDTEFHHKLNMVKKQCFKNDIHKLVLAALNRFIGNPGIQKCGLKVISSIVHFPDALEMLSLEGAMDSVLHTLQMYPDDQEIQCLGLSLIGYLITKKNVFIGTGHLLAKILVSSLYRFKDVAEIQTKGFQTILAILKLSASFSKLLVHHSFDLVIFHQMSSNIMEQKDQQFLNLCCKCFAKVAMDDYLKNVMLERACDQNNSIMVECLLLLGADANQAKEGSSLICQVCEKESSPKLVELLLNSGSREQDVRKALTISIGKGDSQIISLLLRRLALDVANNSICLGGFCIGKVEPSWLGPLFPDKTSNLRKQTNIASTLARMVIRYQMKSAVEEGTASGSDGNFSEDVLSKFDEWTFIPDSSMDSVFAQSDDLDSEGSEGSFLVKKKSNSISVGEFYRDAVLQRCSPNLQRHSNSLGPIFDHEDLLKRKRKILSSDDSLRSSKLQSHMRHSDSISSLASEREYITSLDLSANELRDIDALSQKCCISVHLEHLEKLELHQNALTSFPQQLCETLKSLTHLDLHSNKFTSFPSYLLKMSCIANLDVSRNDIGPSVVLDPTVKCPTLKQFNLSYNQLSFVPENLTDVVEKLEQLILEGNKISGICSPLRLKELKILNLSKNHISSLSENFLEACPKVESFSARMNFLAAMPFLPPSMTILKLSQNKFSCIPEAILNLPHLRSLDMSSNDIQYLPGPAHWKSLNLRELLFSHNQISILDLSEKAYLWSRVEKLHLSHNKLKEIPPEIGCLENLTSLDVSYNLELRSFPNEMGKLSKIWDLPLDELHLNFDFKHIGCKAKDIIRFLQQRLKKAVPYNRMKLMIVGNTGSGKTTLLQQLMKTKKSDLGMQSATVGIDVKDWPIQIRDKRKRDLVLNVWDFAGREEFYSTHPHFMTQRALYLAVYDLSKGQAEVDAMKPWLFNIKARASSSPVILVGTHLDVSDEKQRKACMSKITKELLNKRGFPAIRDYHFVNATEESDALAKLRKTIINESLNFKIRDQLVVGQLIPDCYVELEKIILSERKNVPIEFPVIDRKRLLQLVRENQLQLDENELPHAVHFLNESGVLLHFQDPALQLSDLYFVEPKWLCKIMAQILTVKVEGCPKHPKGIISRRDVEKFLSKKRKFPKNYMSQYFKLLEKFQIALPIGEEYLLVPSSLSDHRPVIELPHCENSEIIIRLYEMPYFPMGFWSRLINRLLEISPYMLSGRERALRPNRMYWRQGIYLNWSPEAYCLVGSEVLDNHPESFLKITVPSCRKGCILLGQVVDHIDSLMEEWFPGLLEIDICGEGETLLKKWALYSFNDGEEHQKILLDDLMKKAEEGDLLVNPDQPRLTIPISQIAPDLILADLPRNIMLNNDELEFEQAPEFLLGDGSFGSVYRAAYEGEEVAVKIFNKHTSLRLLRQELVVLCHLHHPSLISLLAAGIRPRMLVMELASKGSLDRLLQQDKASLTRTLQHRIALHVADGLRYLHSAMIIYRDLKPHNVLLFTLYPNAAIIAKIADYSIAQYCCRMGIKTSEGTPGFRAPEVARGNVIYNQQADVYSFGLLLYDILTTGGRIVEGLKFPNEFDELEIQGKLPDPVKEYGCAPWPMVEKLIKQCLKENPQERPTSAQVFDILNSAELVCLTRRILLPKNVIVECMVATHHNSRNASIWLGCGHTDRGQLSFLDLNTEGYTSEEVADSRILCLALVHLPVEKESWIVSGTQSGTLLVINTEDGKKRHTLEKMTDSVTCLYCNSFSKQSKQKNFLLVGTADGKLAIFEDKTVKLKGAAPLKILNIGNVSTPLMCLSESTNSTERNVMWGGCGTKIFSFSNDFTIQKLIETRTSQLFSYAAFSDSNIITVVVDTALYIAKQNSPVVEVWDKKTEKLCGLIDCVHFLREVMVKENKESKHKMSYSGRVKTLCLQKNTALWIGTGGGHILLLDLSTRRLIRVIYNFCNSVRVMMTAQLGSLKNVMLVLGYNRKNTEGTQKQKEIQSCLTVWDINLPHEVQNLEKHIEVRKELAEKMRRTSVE

As to `CC1=C(C(=O)Nc2ccc3[nH]nc(-c4ccccc4)c3c2)C(C)(C)n2nnnc2N1C`, it took 3 nM to reach half-maximal inhibition in data set [1] (IC50). As to `Cc1n[nH]c2ccc(O[C@H]3CCCc4cc(C#N)ccc43)cc12`, the IC50 (as a rule, the concentration that gives 50% inhibition) in data set [1] amounted to 2.8 nM; in data set [2] it was 137 nM; in data set [3] it was 62 nM. The efflux ratio (usually a quotient of directional permeabilities that is used to spot active efflux) in the data set on MDR1 (P-gp) was determined as 1.3. Besides, the half-life (commonly the time needed for the level to fall by half in the phase considered) at 0.5 µM in data set [4] was 35 min; in data set [5] it was 18 min.

In data set [1], `Cc1n[nH]c2ccc(O[C@@H]3CCc4cc(C#N)ccc43)cc12` showed an IC50 of 62 nM. Same read-out and setting: under `N#Cc1ccc2c(c1)CN(c1ccc3[nH]nc(C4CC4)c3c1)C2=O` stands 615 nM. Consider `Cc1n[nH]c2ccc(O[C@H]3CCc4cc(C#N)ccc43)cc12`, for which, in data set [1], the IC50 was found to be 14 nM.

As for `N#Cc1ccc(C(=O)Nc2ccc3[nH]nc(-c4ccoc4)c3c2)cc1`, inhibition in data set [1] was half-maximal at 41 nM (IC50). Moreover, the efflux ratio with MDR1 (P-gp) amounted to 1.9. Compound `N#Cc1ccc2c(c1)CCN(c1ccc3[nH]nc(C4CC4)c3c1)C2=O` showed an IC50 in data set [1] of 5500 nM. On the same count and under the same terms, under `N#Cc1ccc(C(=O)Nc2ccc3[nH]nc(C4CC4)c3c2)cc1` stands 790 nM; under `O=C(Nc1ccc2[nH]nc(-c3ccoc3)c2c1)c1cnc2cnccc2c1`, 173 nM.

Regarding `N#Cc1ccc2c(c1)CC[C@@H]2Oc1ccc2[nH]nc(-c3cnco3)c2c1`, the results for the IC50 in data set [1], in data set [2] and in data set [3] were 0.4 nM, 27 nM and 8.3 nM, respectively. Also, the efflux ratio with MDR1 (P-gp) turned out to be 2.2. The half-life at 0.5 µM in data set [4] came to 61 min; in data set [5], 53 min. In data set [1], `N#Cc1ccc2c(c1)CCC[C@@H]2Oc1ccc2[nH]nc(-c3ccnc(N4CCOCC4)c3)c2c1` showed an IC50 of 1.4 nM.

On to `N#Cc1ccc2c(c1)CCC[C@@H]2Nc1ccc2[nH]nc(-c3cnco3)c2c1`, for which the IC50 in data set [1] came to 0.9 nM.

In data set [1], `N#Cc1ccc2c(c1)C(=O)N(c1ccc3[nH]nc(C4CC4)c3c1)C2=O` returned an IC50 greater than 7600 nM. The same measure, in the same setting: under `O=C(Nc1ccc2[nH]nc(-c3ccoc3)c2c1)c1nc2cnccc2s1` stands 74 nM. Consider `N#Cc1ccc2c(c1)CCC[C@@H]2Oc1ccc2[nH]nc(-c3cnco3)c2c1`, for which the values for the IC50 in data set [1], in data set [2] and in data set [3] were less than 0.2 nM, 6.2 nM and 3.5 nM, respectively. Further, the efflux ratio in the data set on MDR1 (P-gp) turned out to be 1.7. The figures for the half-life at 0.5 µM in data set [4] and in data set [5] were 28 min and 42 min, respectively. Regarding `COCc1ccc(C(=O)Nc2ccc3[nH]nc(-c4ccoc4)c3c2)cc1`, the midpoint of inhibition in data set [1], the IC50, lay at 98 nM.

The compound `CN(C)Cc1ccc(C(=O)Nc2ccc3[nH]nc(-c4ccoc4)c3c2)cc1` displayed an IC50 in data set [1] of 250 nM. On the same count and under the same terms, under `N#Cc1ccc2c(c1)CC[C@H]2Nc1ccc2[nH]nc(-c3ccoc3)c2c1` stands 63 nM. For `N#Cc1ccc2c(c1)CC[C@@H]2Nc1ccc2[nH]nc(-c3ccoc3)c2c1`, the half-maximal inhibitory concentration (IC50) is 11 nM in data set [1], 96 nM in data set [2] and 57 nM in data set [3]. In the data set with MDR1 (P-gp), the efflux ratio turned out to be 1.8. The half-life at 0.5 µM in data set [4] was 25 min; in data set [5], 54 min. The compound `N#Cc1ccc2c(c1)[C@@H](Nc1ccc3[nH]nc(Br)c3c1)CCC2` displayed an IC50 in data set [1] of 14 nM. Turning to `Cn1ncc2cc(C(=O)Nc3ccc4[nH]nc(-c5ccoc5)c4c3)ccc21`, inhibition in data set [1] was half-maximal at 13 nM (IC50). Moreover, the efflux ratio in the data set on MDR1 (P-gp) came out at 9.2. The compound `CC1=C(C(=O)Nc2ccc3[nH]ncc3c2)Cn2nnnc2N1C` displayed an IC50 in data set [1] of 35 nM.

In data set [1], `CS(=O)(=O)c1ccc(C(=O)Nc2ccc3[nH]nc(-c4ccoc4)c3c2)cc1` displayed an IC50 of 49 nM.
